From patent publication US20110217300A1, “Quinazolinone Compounds and Methods of Use Thereof” (priority 2007, published 2011)
Where two headings read alike, the source gives them in different places.

What was measured:
A549 = assay: MTS cell viability assay; format: cell-based; conditions: Homo sapiens, A549 non small cell lung, 72 hours, read-out: MTS NCI A549 GI50
Method: Two human cancer cell lines were assayed (see, Table 1). Cells were maintained at 37° C. and 5% CO2 in DMEM media (4.5 g/L glucose) supplemented with 10% heat-inactivated FBS, 10 mM L-glutamine, and 10 mM Hepes pH 7.5. Briefly, cells were seeded in 96-well plates as set forth in Table 1 and incubated for 16-24 hours. Candidate compounds were serially diluted in DMSO, further diluted in cell culture media, and then added to cells (final DMSO concentration of 0.33%). Cells were incubated in the presence of candidate compound for 72 hours. […] The Compound Numbers in Table 2 correspond to the numbers listed parenthetically in the Example titles.

HsEg5 = target: T1, HsEg5 (Homo sapiens, UniProt P52732); assay: Fluorescence detection of HsEg5 ATPase activity (ADP Quest, automated); format: biochemical
T1 sequence (P52732 18-359 limits assumed): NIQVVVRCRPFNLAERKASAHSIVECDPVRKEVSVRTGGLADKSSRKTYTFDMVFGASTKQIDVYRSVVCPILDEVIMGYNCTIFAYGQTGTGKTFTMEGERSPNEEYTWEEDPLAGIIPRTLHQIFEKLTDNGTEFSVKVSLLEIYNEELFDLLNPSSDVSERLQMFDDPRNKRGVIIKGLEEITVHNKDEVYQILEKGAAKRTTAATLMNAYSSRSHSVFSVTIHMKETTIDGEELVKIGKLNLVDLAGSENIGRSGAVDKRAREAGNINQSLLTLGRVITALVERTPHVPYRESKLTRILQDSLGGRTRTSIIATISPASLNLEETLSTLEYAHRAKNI
Method: Purified HsEg5 motor fragment was activated by mixture with preformed MT polymer (Cytoskeleton, Denver, Colo.) at room temperature for 20 minutes. MT activated ATPase activity was measured using ADP Quest (DiscoverX, Fremont, Calif.) in which a coupled-enzyme assay can translate accumulation of ADP into detectable resorufin signal (FIG. 1A). Fluorescence was measured at λEx=535 nm and λEm=590 nm on a Wallac Victor 2 plate reader (Perkin-Elmer Life Sciences, Boston, Mass.). Reagent A and B from ADP Quest kit were aliquoted and frozen in −20° C. before use. A standard curve was determined using the provided ADP reagent in the reaction buffer that consisted of 50 mM Pipes (pH7.0), 5.0 mM MgCl2, 20 μM paclitaxel and […]. The same buffer was used for Km determination with HsEg5 concentration of 10 nM.
For inhibitor screening, 4 μL of compounds were incubated with 10 μL of MT-activated HsEg5 such that the final concentrations for compound range from 100 μM to 5 nM (1 to 3 serial dilutions, final concentration) and final concentration for HsEg5 is 10 nM. The mixture was incubated at room temperature for 10 minutes with mild shaking. The screening assay contained 0.3% DMSO in all reaction wells. We used wells containing only DMSO as negative controls and wells without ATP as background. Addition of 6 μL ATP (final concentration of 20 μM) initiated the ATP hydrolysis reaction. The 20 μL-reaction was allowed to proceed at room temperature for 10 minutes before addition of 10 μL of reagent A and 20 μL of reagent B. After 20-minute development at room temperature, the fluorescence was measured and data analysis was performed using GraphPad Prism version 3.0 (GraphPad Software, San Diego, Calif.)
For the purpose of high-throughput screening, we automated the fluorescence assay using a Sciclone ALH3000 (Caliper Life Sciences, Hopkinton, Mass.) and Multidrop 384 (Thermo Electron Corp, Waltham, Mass.). First, compound dilution plates for screening (at 10 μM or 1 μM) and ICso determination (10 data points from 100 μM to 5 nM) were made in Corning polypropylene V-bottom 96-well plates. In both cases, the 1st and 7th column contained background (No ATP addition) and negative control (DMSO only). For screening compounds at 10 μM or 1 μM, […] of each compound at 50 μM or 5 μM were used in a 20 μL assay reaction. For IC50 determination, the mother compound plate contained 24 μL of tested compound at stock concentration of 30 mM. 6 μL of each test compound in 30 mM was added to each well in the column 2 and followed by 1:3 serial dilutions in DMSO with the Sciclone ALH3000. 234 μL of assay buffer was then added using a Multidrop 384. Then 4 μL of diluted compounds was used in 20 μL-reaction. The final concentration was a 1:300 dilution of the original stock. Second, a reagent source plate was prepared with three rows designated to MT-activated HsEg5, Reagent A and Reagent B respectively. MTs were diluted with assay buffer and polymerized at room temperature for 10 minutes. Just before use, HsEg5 protein was thawed on ice and activated by addition of MT polymers at room temperature for 20 minutes. HsEg5/MT was then added to Row A of the reagent source plate. The final assay concentration was 10 nM HsEg5 and 500 nM MTs. Reagent A and B were stored at −20° C. and thawed at room temperature followed by transferring to rows B & C of the reagent source plate. Third, ATP substrate plate was prepared by transferring 80 μM ATP solution to each well of a V-shape 96-well plate except the wells in the first row where assay buffer was added instead to have no-ATP blanks. The final concentration for ATP in the assay was 20 μM.
The assay was programmed on Sciclone ALH3000 with the following procedures: 1) Addition of 4 μL compounds to the assay plate, followed by addition of 10 μL of MT-activated HsEg5. […]

NCI-H460 = assay: MTS cell viability assay; format: cell-based, human; conditions: Homo sapiens, NCI-H460, 72 h
Method: Cell viability was determined by measuring the activity of dehydrogenase enzymes in metabolically active cells using a tetrazolium compound, MTS. The assay was performed as described in Promega Technical Bulletin No. 169 (CellTiter 96 Aqueous Non-Radioactive Cell Proliferation Assay). Two human cancer cell lines were assayed (see, Table 1). Cells were maintained at 37° C. and 5% CO2 in DMEM media (4.5 g/L glucose) supplemented with 10% heat-inactivated FBS, 10 mM L-glutamine, and 10 mM Hepes pH 7.5. Briefly, cells were seeded in 96-well plates as set forth in Table 1 and incubated for 16-24 hours. Candidate compounds were serially diluted in DMSO, further diluted in cell culture media, and then added to cells (final DMSO concentration of 0.33%). Cells were incubated in the presence of candidate compound for 72 hours. MTS stock solution (MTS 2 gm/L, PMS […] in PBS) was added to the cells (final concentration MTS […] and PMS 7.67 mg/L) and incubated for 4 hours. SDS was added to a final concentration of 1.4% and absorbance at 490 nm was measured within two hours using a plate reader. […] GI50 values were given in Table 2 for the compounds listed. The Compound Numbers in Table 2 correspond to the numbers listed parenthetically in the Example titles. Where multiple measurements were made by different technicians, both values are given.
Cell viability was determined for N-(3-amino-propyl)-3-chloro-N—[(R)-1-(7-chloro-4-oxo-3-phenylamino-3,4-dihydro-quinazolin-2-yl)-but-3-ynyl]-2-fluoro-benzamide (compound I of Table 2). The cell viability assay of Example 105 was used. GI50 was determined using a variety of cell lines. Cells were plated at 100-5000 cells per well. At least 2 replicates were performed. Where multiple measurements were made by different technicians, both values are given.

[1] = read-out: MTS NCI H460 GI50, NCI-H460 non small cell lung, 72 hours

| Compound | GI50 (A549; A549, 72 h) [µM] | IC50 (HsEg5) [µM] | GI50 (NCI-H460; [1]) [µM] | GI50 (A549) [µM] | GI50 (NCI-H460; read-out: MTS NCI H460 GI50) [µM] |
| --- | --- | --- | --- | --- | --- |
| CCC(c1nc2cc(Cl)ccc2c(=O)n1Nc1ccccc1)N(CCCN)C(=O)c1ccc(F)c(C)c1 (stereo not drawn) [Compound 18, N-(3-Aminopropyl)-N-[1-(3-anilino-7-chloro-4-oxo-3,4-dihydroquinazolin-2-yl)propyl]-4-fluoro-3-methylbenzamide] | 3.92 | 1.25 | 2.5 |  |  |
| NCCCN(C(=O)c1cccc(F)c1F)C(Cc1cccs1)c1nc2cc(Cl)ccc2c(=O)n1Nc1ccccc1 (stereo not drawn) [Compound 50, N-(3-Aminopropyl)-N-[1-(3-anilino-7-chloro-4-oxo-3,4-dihydroquinazolin-2-yl)-2-(2-thienyl)ethyl]-2,3-difluorobenzamide] | 3.77 | 1.18 | 3.12 |  |  |
| CCC(c1nc2cc(Cl)ccc2c(=O)n1Nc1cc(F)ccc1F)N(CCCN)C(=O)c1ccc(C)cc1 (stereo not drawn) [Compound 26, N-(3-Aminopropyl)-N-(1-{7-chloro-3-[(2,5-difluorophenyl)amino]-4-oxo-3,4-dihydroquinazolin-2-yl}propyl)-4-methylbenzamide] |  | 0.944 |  | 1.25 | 0.889 |
| CCC(c1nc2cc(Cl)ccc2c(=O)n1Nc1ccccc1)N(CCN)C(=O)c1c(F)ccc(C)c1F (stereo not drawn) [Compound 62, N-(2-Aminoethyl)-N-[1-(3-anilino-7-chloro-4-oxo-3,4-dihydroquinazolin-2-yl)propyl]-2,6-difluoro-3-methylbenzamide] |  | 3.74 |  | 21.7 | 22.8 |
| NCCCN(C(=O)c1ccc(Cl)c(Cl)c1)C(Cc1ccc(O)cc1)c1nc2cc(Cl)ccc2c(=O)n1Nc1ccccc1 (stereo not drawn) [Compound 54, N-(3-Aminopropyl)-N-[1-(3-anilino-7-chloro-4-oxo-3,4-dihydroquinazolin-2-yl)-2-(4-hydroxyphenyl)ethyl]-3,4-dichlorobenzamide] | 12.2 | 2.41 | 11.9 |  |  |
| CCC(c1nc2ccc(Cl)cc2c(=O)n1Nc1ccccc1)N(CCCN)C(=O)c1ccc(C)cc1 (stereo not drawn) [Compound 27, N-(3-Aminopropyl)-N-[1-(3-anilino-6-chloro-4-oxo-3,4-dihydroquinazolin-2-yl)propyl]-4-methylbenzamide] |  | 1.28 |  | 2.22 | 1.08 |
| CCC(c1nc2cc(Cl)ccc2c(=O)n1OCc1ccccc1)N(CCCN)C(=O)c1ccc(C)cc1 (stereo not drawn) [Compound 32, N-(3-Aminopropyl)-N-{1-[3-(benzyloxy)-7-chloro-4-oxo-3,4-dihydroquinazolin-2-yl]propyl}-4-methylbenzamide] |  | 1.39 |  | 1.87 | 0.956 |
| CCC(c1nc2cc(Cl)ccc2c(=O)n1Nc1ccccc1)N(CCCN)C(=O)c1cccc(F)c1F (stereo not drawn) [Compound 7, N-(3-Aminopropyl)-N-[1-(3-anilino-7-chloro-4-oxo-3,4-dihydroquinazolin-2-yl)propyl]-2,3-difluorobenzamide] |  | 0.566 |  | 2.57 | 1.77 |
| CCC(c1nc2ccc(C)cc2c(=O)n1Nc1ccccc1)N(CCCN)C(=O)c1ccc(C)cc1 (stereo not drawn) [Compound 28, N-(3-Aminopropyl)-N-[1-(3-anilino-6-methyl-4-oxo-3,4-dihydroquinazolin-2-yl)propyl]-4-methylbenzamide] |  | 1.59 |  | 2.5 | 1.35 |
| CCC(c1nc2cc(Cl)ccc2c(=O)n1Oc1ccccc1)N(CCCN)C(=O)c1ccc(C)cc1 (stereo not drawn) [Compound 29, N-(3-Aminopropyl)-N-[1-(7-chloro-4-oxo-3-phenoxy-3,4-dihydroquinazolin-2-yl)propyl]-4-methylbenzamide] | 3.31 | 2.17 | 2.09 |  |  |
| CCC(c1nc2cc(Cl)ccc2c(=O)n1Nc1ccccc1)N(CCCN)C(=O)c1ccc([N+](=O)[O-])cc1 (stereo not drawn) [Compound 5, N-(3-Aminopropyl)-N-[1-(3-anilino-7-chloro-4-oxo-3,4-dihydroquinazolin-2-yl)propyl]-4-nitrobenzamide] |  | 1.05 |  | 4.4 | 2.39 |
| CCC(c1nc2cc(Cl)ccc2c(=O)n1Nc1ccccc1)N(CCCN)Cc1ccc(C)cc1 (stereo not drawn) [Compound 67, 2-{1-[(3-Aminopropyl)(4-methyl-benzyl)amino]propyl}-3-anilino-7-chloro-3H-quinazolin-4-one] |  | 8.3 |  | 15.5 | 13.1 |
| CCC(c1nc2cc(Cl)ccc2c(=O)n1Nc1ccccc1)N(CCN)C(=O)c1cccc(Cl)c1F (stereo not drawn) [Compound 64, N-(2-Aminoethyl)-N-[1-(3-anilino-7-chloro-4-oxo-3,4-dihydroquinazolin-2-yl)propyl]-3-chloro-2-fluorobenzamide] |  | 1.46 |  | 12.6 | 6.81 |
| CCC(c1nc2cc(Cl)ccc2c(=O)n1Nc1ccccc1)N(CCCN)C(=O)c1cc(Cl)cc(Cl)c1 (stereo not drawn) [Compound 11, N-(3-Aminopropyl)-N-[1-(3-anilino-7-chloro-4-oxo-3,4-dihydroquinazolin-2-yl)propyl]-3,5-dichlorobenzamide] |  | 0.735 |  | 3.01 | 2.44 |
